Laboratory results published in the NIST ThermoML archive (doi:10.1016/j.fluid.2005.03.028).

Test: excess molar enthalpy (molar enthalpy of mixing); xn = mol fraction of the nth substance listed
Settings: 303.15 K, 101.3 kPa, Liquid

Cc1cccc(C)n1 [2,6-dimethylpyridine] + CCCCCCCC
Settings	excess molar enthalpy [kcal/mol]
x1 = 0.108	0.12
x1 = 0.199	0.172
x1 = 0.202	0.182
x1 = 0.346	0.233
x1 = 0.413	0.246
x1 = 0.506	0.251
x1 = 0.597	0.246
x1 = 0.698	0.217
x1 = 0.708	0.208

Cc1cncc(C)c1 [3,5-dimethylpyridine] + CCCCCCC
Settings	excess molar enthalpy [kcal/mol]
x1 = 0.0712	0.0951
x1 = 0.2287	0.217
x1 = 0.2961	0.258
x1 = 0.3799	0.281
x1 = 0.4475	0.296
x1 = 0.497	0.293
x1 = 0.5013	0.294
x1 = 0.5962	0.283
x1 = 0.6871	0.249
x1 = 0.7428	0.219
x1 = 0.85	0.137

Cc1cccc(C)n1 [2,6-dimethylpyridine] + CCCCCC
Settings	excess molar enthalpy [kcal/mol]
x1 = 0.1061	0.1
x1 = 0.2206	0.171
x1 = 0.2931	0.202
x1 = 0.3822	0.215
x1 = 0.4338	0.221
x1 = 0.4341	0.22
x1 = 0.4507	0.226
x1 = 0.5516	0.223
x1 = 0.6172	0.215
x1 = 0.7034	0.191
x1 = 0.7949	0.141
x1 = 0.884	0.0844

Cc1cccc(C)n1 [2,6-dimethylpyridine] + CCCCCCC
Settings	excess molar enthalpy [kcal/mol]
x1 = 0.1137	0.114
x1 = 0.1939	0.16
x1 = 0.26	0.194
x1 = 0.313	0.211
x1 = 0.318	0.216
x1 = 0.365	0.226
x1 = 0.4264	0.237
x1 = 0.46	0.241
x1 = 0.5077	0.242
x1 = 0.58	0.227
x1 = 0.7064	0.202
x1 = 0.7851	0.165
x1 = 0.857	0.123

Cc1cncc(C)c1 [3,5-dimethylpyridine] + CCCCCC
Settings	excess molar enthalpy [kcal/mol]
x1 = 0.1064	0.137
x1 = 0.1889	0.201
x1 = 0.314	0.259
x1 = 0.434	0.275
x1 = 0.5119	0.278
x1 = 0.6092	0.26
x1 = 0.7259	0.214
x1 = 0.775	0.191
x1 = 0.8934	0.0978
x1 = 0.9495	0.0492

Cc1cncc(C)c1 [3,5-dimethylpyridine] + CCCCCCCC
Settings	excess molar enthalpy [kcal/mol]
x1 = 0.1056	0.133
x1 = 0.2504	0.24
x1 = 0.3971	0.294
x1 = 0.4266	0.301
x1 = 0.4971	0.304
x1 = 0.5313	0.305
x1 = 0.5417	0.303
x1 = 0.6032	0.293
x1 = 0.7289	0.237
x1 = 0.8127	0.184
x1 = 0.914	0.0915
